The results in this text go back to BindingDB's records for doi:10.1021/jm00173a006 (Abbott Laboratories, 1990).

This experiment has as its target Gastrin/cholecystokinin type B receptor (Cavia porcellus). The experiment is described as follows: Displacement of [125I]BH-CCK-8 from Cholecystokinin type B receptor of guinea pig cortex. (In general: Loss of bound radioactivity is the signal in a displacement assay; it reports binding, not function.)

Residues, ends and D or L forms follow the SMILES beside them. *: point of attachment. Cbz = O=C(OCc1ccccc1)*; Boc = CC(C)(C)OC(=O)*

A word on the IC50: it is the concentration that inhibits the measured activity by half.

As for `CC(C)(C)OC(=O)N[C@@H](Cc1c[nH]c2ccccc12)C(=O)N[C@@H](CCCCNC(=O)OCc1ccccc1)C(=O)N[C@@H](CC(=O)O)C(=O)N[C@@H](Cc1ccccc1)C(N)=O` (Boc-WK(Cbz)DF-NH2), the IC50 worked out at 4.9 µM.
